Data: US20210121527A1, “METHODS OF TREATING MINIMAL RESIDUAL CANCER” (ICAHN SCHOOL OF MEDICINE AT MOUNT SINAI, priority 2018, published 2021)

How the values were obtained:
[1] = test system: HER2^+ metastases and DCCs; test: Metastasis, CTC and DCC quantification in MMTV-HER2 mice; assay type: in vivo, mouse; conditions: 50 mpk i.p. daily, two weeks
Experimental: (§1) Mice, tumor growth, and tissue processing: The FVB/N-Tg (MMTVneu) mouse strain was obtained from Jackson Laboratories (Sacramento, Calif.). […] Before being used in any experiment, females underwent one round of pregnancy and at least two weeks of no lactation after weaning. Females between 24-32 weeks of age were injected intraperitoneally with vehicle (90% corn oil, 10% ethanol) or LY4 (50 mpk) daily, for two weeks. For the combination treatment, females 24-32 weeks of age were treated daily by oral gavage with Abemaciclib (50 mpk) for 4 weeks before starting the treatment described earlier with LY4. Tumor volumes were measured using the formula (Dxd^2)/2, where D is the longest and d is the shortest diameter. For CTC count, animals were anesthetized and whole blood was extracted by cardiac puncture. Mammary glands, lungs, and tumors were collected and fixed in 10% buffered formalin overnight before paraffin embedding. The bone marrow from the two lower limbs was flushed with a 26 G needle and further processed by Ficoll density gradient centrifugation. For CTC as well as for DTC detection in bone marrow, tissues were depleted of mature hematopoietic cells by anti-mouse antibody-labeled magnetic bead separation (Miltenyi Biotec, San Diego, Calif.) before fixation in formalin for 20 minutes at 4° C.
(§2) IHC and IF: IHC and IF from paraffin-embedded sections was performed as previously described (Avivar-Valderas et al., “Regulation of Autophagy during ECM Detachment is Linked to a Selective Inhibition of mTORC1 by PERK,” Oncogene 32(41):4932-40 (2013), which is hereby incorporated by reference in its entirety). Briefly, slides were dewaxed and serially rehydrated. Heat-induced antigen retrieval was performed in either citrate buffer (10 mM, pH 6), EDTA buffer (1 mM, pH 8), or Tris/EDTA (pH9). Slides were further permeabilized in 0.1% Triton™-X100, blocked and incubated with primary antibody overnight at 4° C. at 1:50-1:200 dilution. For IHC, an additional step of endogenous peroxidase and avidin/biotin quenching was performed before primary antibody incubation. […] Next, slides were incubated in secondary antibodies (Life Technologies, Norwalk, Conn.) and mounted. For IHC, sections were processed using VectaStain ABC Elite kit (Vector Laboratories, Bulingame, Calif.) and DAB Substrate kit for peroxidase labelling (Vector Laboratories) and mounted in VectaMount medium (Vector laboratories). For IF, sections were mounted in ProLong Gold Antifade aqueous medium (Thermo Fisher, Waltham, Mass.).
In the case of immunocytofluorescence, cytospins of fixed cells (100,000-200,000 cells/cytospin were prepared by cyto-centrifugation at 500 rpm for 3 minutes on poly-prep slides, and the staining protocol was performed as explained below from the permeabilization onward. For the staining of 3D cultures, acini were fixed in 4% PFA for 20 minutes at 4° C., permeabilized with 0.5% Triton™-X100 in PBS for 20 minutes at room temperature, washed in PBS-glycine, and then blocked with 10% normal goat serum for 1 hour at 37° C., before performing immunofluorescence staining.

HER2^+ tumors = test: Growth of overt tumors in MMTV-HER2 females; assay type: in vivo, mouse
Experimental: as §1, §2
TUNEL in situ cell death detection: Apoptosis levels were evaluated using the In situ Cell Death Detection kit, AP (Roche, Basel, Switzerland). Paraffin sections from tumors were dewaxed, rehydrated, and permeabilized in phosphate buffered saline (PBS) 0.2% TRITON™-X100 for 8 minutes. Then, slides were washed and blocked in 20% normal goat serum for 1 hour at 37° C. The TUNEL reaction mixture was then added and let go for 1 hour at 37° C. The reaction was stopped by incubating with Buffer I(0.3 M Sodium chloride, 30 mM Sodium citrate). Next, the slides were incubated with anti-fluorescein-AP antibody for 30 minutes at 37° C. After three washes in Tris buffered saline (TBS), slides were incubated in alkaline phosphatase substrate in 0.1% TWEEN™-20 for 20 min at room temperature. Finally, the slides were mounted using aqueous mounting medium. The percentage of TUNEL positive cells was calculated using Image J software (NIH).

[2] = test system: MCF10A-HER2, ZR75.1, SKBR3; test: 3D acini cultures in Matrigel, cleaved caspase-3 and P-histone H3; assay type: cell-based, human; conditions: 2 μM, 10 days
Experimental: Reagents, cell culture, and treatments: EGF was obtained from PeproTech (Rocky Hill, N.J.) and used at 100 ng/ml. Thapsigargin was from Sigma (St. Louis, Mo.) and used at 2 nM. The ZR75.1-H2B-Dendra2 cell line was generated by stable transfection of the H2B-Dendra2 plasmid (Gurskaya et al., “Engineering of a Monomeric Green-to-Red Photoactivatable Fluorescent Protein Induced by Blue Light,” Nat. Biotechnol. 24:461-465 (2006), which is hereby incorporated by reference in its entirety). For 3D cultures, MCF10A-HER2, SKBR3, and ZR75.1-H2B-Dendra2 cells were plated in growth factor-reduced Matrigel (Corning, Corning, N.Y.) and grown as described previously (Avivar-Valderas et al., “Regulation of Autophagy during ECM Detachment is Linked to a Selective Inhibition of mTORC1 by PERK,” Oncogene 32(41):4932-40 (2013), which is hereby incorporated by reference in its entirety). When referring to “low density,” 3,500 cells/8-well were seeded, and for “high density” 20,000 cells/8-well. Treatments with vehicle (DMSO) or LY4 (2 μM) were replaced every 24 hours for 2D and every 48 hours for 3D cultures. […]

In the case of `Cc1cc(NC(=O)[C@H](O)c2cc(F)cc(F)c2)ccc1-c1cnc(N)c(C(=O)NC(C)C)c1` [LY4, 2-amino-5-[4-[[(2R)-2-(3,5-difluorophenyl)-2-hydroxy-acetyl]amino]-2-methyl-phenyl]-N-isopropyl-pyridine-3-carboxamide], the “HER2^+ circulating tumor cells in blood” value [1] is reported as “no significant difference between vehicle and LY4-treated animals”, the area of macro-metastases [1] is reported as “without affecting the area of these metastases” and the “number and incidence of lung macro-metastases (>100 cells)” value [1] is reported as “reduced the number and the incidence of macro-metastases”. The “number of DCCs in bone marrow” value [1] was “significantly decreased the number of DCCs found in bone marrow”, the “number of P-Rb negative single DCCs in lung sections” value [1] was “strongly reduced the number of non-proliferating (P-Rb negative) single DCCs” and the “number of P-Rb positive solitary DTCs in lung” value [1] was “without affecting the number of P-Rb positive solitary DTCs”. The “number of lung micro-metastases (2-100 cells)” value [1] was “significant decrease in the number of micro-metastases”, the “tumors remaining in complete cytostasis” value (HER2^+ tumors; 2-week treatment, 7% in controls) was 43% and the tumors showing regression (HER2^+ tumors; 2-week window treatment) was 25%. The “P-HER2 levels in tumors (IHC score)” value (HER2^+ tumors; 50 mpk, two weeks) was “significantly lower levels of P-HER2 than control animals”, the “TUNEL staining of tumor sections (DNA fragmentation)” value (HER2^+ tumors; 50 mpk, two weeks) was “significant increase in the levels of DNA fragmentation” and the “median final tumor volume” value (HER2^+ tumors; 50 mpk, two weeks) was “significant decrease in median final tumor volume”. The “proliferation in tumors (P-histone H3 IHC)” value (HER2^+ tumors; 50 mpk, two weeks) was “not different between vehicle- and LY4-treated tumors”, the tumor growth rate (HER2^+ tumors; 50 mpk, two weeks) was “reduced growth rate” and the “apoptosis (cleaved caspase-3) in 3D acini” value [2] was “significantly increased the levels of apoptosis (cleaved caspase-3)”. For the same compound, the “proliferation in 3D acini (phospho-histone H3)” value [2] was “a significant change in the levels of proliferation as detected by phospho-histone H3 levels was not observed”.
